Data published in patent publication US4735958A, “Trans-6-[2-[2-(substituted-phenyl)-3- (or 4-) heteroaryl-5-substituted-1H-pyrrol-1-yl]-ethyl]tetrahydro-4-hydroxy-2H-p yran-2-one inhibitors of cholesterol biosynthesis” (Warner-Lambert Company, priority 1986, dated 1988).
pIC50: −log10 of the molar value.

Test system: sterol synthesis
Test: CSI: inhibition of cholesterol biosynthesis, incorporation of cholesterol-^14 C-acetate into nonsaponifiable lipid by rat liver homogenate
Type: biochemical
Settings: 50% inhibition of sterol synthesis over a one-hour period; liver homogenate of rats fed chow diet containing 5% cholestyramine for four days
Description: The ability of compounds of the present invention to inhibit the biosynthesis of cholesterol was measured by the procedure described by R. E. Dugan et al., Archiv. Biochem. Biophys., (1972), 152, 21-27. In this method, designated CSI, the level of HMG-CoA enzyme activity in standard laboratory rats is increased by feeding the rats a chow diet containing 5% cholestyramine for four days, after which the rats are sacrificed.
The rat livers are homogenized, and the incorporation of cholesterol-^14 C-acetate into nonsaponifiable lipid by the rat liver homogenate is measured. The micromolar concentration of compound required for 50% inhibition of sterol synthesis over a one-hour period is measured, and expressed as an IC50 value.

Q: How did the pIC50 turn out when `CC[C@H](C)C(=O)O[C@H]1CCC=C2C=C[C@H](C)[C@H](CC[C@@H]3C[C@@H](O)CC(=O)O3)[C@H]21` [Compactin, reference compound] was run?
A: Its pIC50 is 7.74.

Q: With `CC(C)c1cc(-c2cccnc2)c(-c2ccc(F)cc2)n1CC[C@@H]1C[C@@H](O)CC(=O)O1` (relative stereo) [Compound 2, trans-(±)-6-[2-[2-[(4-Fluorophenyl)-5-(1-methylethyl)-3-(3-pyridinyl)-1H-pyrrol-1-yl]ethyl]tetrahydro-4-hydroxy-2H-pyran-2-one] as the molecule, how does the pIC50 read?
A: The pIC50 was 7.26.

Q: How did the pIC50 turn out when `CC(C)c1cc(-c2ccncc2)c(-c2ccc(F)cc2)n1CC[C@H]1C[C@H](O)CC(=O)O1` (racemic) [Compound 3, trans-(±)-6-[2-[2-(4-Fluorophenyl)-5-(1-methylethyl)-3-(4-pyridinyl)-1H-pyrrol-1-yl]ethyl]tetrahydro-4-hydroxy-2H-pyran-2-one] was run?
A: The pIC50 was 7.89.

Q: `CC(C)c1cc(-c2ccccn2)c(-c2ccc(F)cc2)n1CC[C@H]1C[C@H](O)CC(=O)O1` (racemic) [Compound 1, trans-(±)-6-[2-[2-(4-Fluorophenyl)-5-(1-methylethyl)-3-(2-pyridinyl)-1H-pyrrol-1-yl]ethyl]tetrahydro-4-hydroxy-2H-pyran-2-one] was tested. Which pIC50 did it give?
A: Its pIC50 is 7.32.
